Laboratory results taken from ChEMBL document CHEMBL1142022, “Synthesis and evaluation of diverse analogs of amygdalin as potential peptidomimetics of peptide T” (Bioorg Med Chem Lett, 2005).

How the values were obtained:
Assay type in all cases: functional
[1] = biological target: T-cell surface glycoprotein CD4 (Homo sapiens) (UniProt P01730); experiment: Chemotactic activity of compound measured as function of concentration of 6 uM compared to peptide T,[DA1a]peptide T and amygdalin
[2] = biological target: T-cell surface glycoprotein CD4 (Homo sapiens) (UniProt P01730); experiment: Chemotactic activity of compound measured as function of concentration of 7 uM compared to peptide T,[DA1a]peptide T and amygdalin
[3] = biological target: T-cell surface glycoprotein CD4 (Homo sapiens) (UniProt P01730); experiment: Chemotactic activity of compound measured as function of concentration of 10 uM compared to peptide T,[DA1a]peptide T and amygdalin
[4] = biological target: T-cell surface glycoprotein CD4 (Homo sapiens) (UniProt P01730); experiment: Chemotactic activity of compound measured as function of concentration of 9 uM compared to peptide T,[DA1a]peptide T and amygdalin
[5] = biological target: T-cell surface glycoprotein CD4 (Homo sapiens) (UniProt P01730); experiment: Chemotactic activity of compound measured as function of concentration of 8 uM compared to peptide T,[DA1a]peptide T and amygdalin
[6] = biological target: T-cell surface glycoprotein CD4 (Homo sapiens) (UniProt P01730); experiment: Chemotactic activity of compound measured as function of concentration of 11 uM compared to peptide T,[DA1a]peptide T and amygdalin

C#CC(O[C@@H]1O[C@@H](CO[C@@H]2O[C@@H](CO)[C@@H](O)[C@H](O)[C@@H]2O)[C@@H](O)[C@H](O)[C@@H]1O)c1ccccc1 (stereo not given in full)
Chemotactic index [1]: 0.79

NC(=O)[C@H](O[C@@H]1O[C@@H](CO[C@@H]2O[C@@H](CO)[C@@H](O)[C@H](O)[C@@H]2O)[C@@H](O)[C@H](O)[C@@H]1O)c1ccccc1
Chemotactic index [2]: 0.84

COc1ccc(CO[C@@H]2O[C@@H](CO[C@@H]3O[C@@H](CO)[C@@H](O)[C@H](O)[C@@H]3O)[C@@H](O)[C@H](O)[C@@H]2O)c(OC)c1
Chemotactic index [3]: 0.84

O=C(O)[C@H](O[C@@H]1O[C@@H](CO[C@@H]2O[C@@H](CO)[C@@H](O)[C@H](O)[C@@H]2O)[C@@H](O)[C@H](O)[C@@H]1O)c1ccccc1
Chemotactic index [4]: 0.71

OC[C@@H]1O[C@@H](OC[C@@H]2O[C@@H](OCc3ccccc3)[C@@H](O)[C@@H](O)[C@@H]2O)[C@@H](O)[C@@H](O)[C@@H]1O
Chemotactic index [5]: 0.76

CCC(O[C@@H]1O[C@@H](CO[C@@H]2O[C@@H](CO)[C@@H](O)[C@H](O)[C@@H]2O)[C@@H](O)[C@H](O)[C@@H]1O)c1ccccc1 (stereo not given in full)
Chemotactic index [1]: 0.75

OC[C@@H]1O[C@@H](OC[C@@H]2O[C@@H](OCCc3ccccc3)[C@@H](O)[C@@H](O)[C@@H]2O)[C@@H](O)[C@@H](O)[C@@H]1O
Chemotactic index [4]: 0.7

COc1ccc(CO[C@@H]2O[C@@H](CO[C@@H]3O[C@@H](CO)[C@@H](O)[C@H](O)[C@@H]3O)[C@@H](O)[C@H](O)[C@@H]2O)cc1
Chemotactic index [3]: 0.87

N#CC(O[C@@H]1O[C@H](CO[C@@H]2O[C@H](CO)[C@@H](O)[C@H](O)[C@H]2O)[C@@H](O)[C@H](O)[C@H]1O)c1ccccc1 (single isomer, unassigned)
Chemotactic index [3]: 0.63

CC(C)(C)C(O[C@@H]1O[C@@H](CO[C@@H]2O[C@@H](CO)[C@@H](O)[C@H](O)[C@@H]2O)[C@@H](O)[C@H](O)[C@@H]1O)c1ccccc1 (stereo not given in full)
Chemotactic index [4]: 0.84

C[C@H](N)C(=O)N[C@@H](CO)C(=O)N[C@H](C(=O)N[C@H](C(=O)N[C@H](C(=O)N[C@@H](CC(N)=O)C(=O)N[C@@H](Cc1ccc(O)cc1)C(=O)N[C@H](C(=O)O)[C@@H](C)O)[C@@H](C)O)[C@@H](C)O)[C@@H](C)O
Chemotactic index [6]: 1.09

OC[C@@H]1O[C@@H](OC[C@@H]2O[C@@H](OCc3c4ccccc4cc4ccccc34)[C@@H](O)[C@@H](O)[C@@H]2O)[C@@H](O)[C@@H](O)[C@@H]1O
Chemotactic index [5]: 0.94

C[C@@H](N)C(=O)N[C@@H](CO)C(=O)N[C@H](C(=O)N[C@H](C(=O)N[C@H](C(=O)N[C@@H](CC(N)=O)C(=O)N[C@@H](Cc1ccc(O)cc1)C(=O)N[C@H](C(N)=O)[C@@H](C)O)[C@@H](C)O)[C@@H](C)O)[C@@H](C)O
Chemotactic index [6]: 0.89

OC[C@@H]1O[C@@H](OC[C@@H]2O[C@@H](OCc3ccccc3Br)[C@@H](O)[C@@H](O)[C@@H]2O)[C@@H](O)[C@@H](O)[C@@H]1O
Chemotactic index [3]: 0.94

CC(O[C@@H]1O[C@@H](CO[C@@H]2O[C@@H](CO)[C@@H](O)[C@H](O)[C@@H]2O)[C@@H](O)[C@H](O)[C@@H]1O)c1ccccc1 (stereo not given in full)
Chemotactic index [5]: 0.77
